Experimental data: patent US20110183978A1, “Phenylpyri(mi)dinylazoles” (Bayer CropScience AG, priority 2009, published 2011)
Where two headings read alike, the source gives them in different places.

What was measured:
[1] = physchem
[2] = system: Sphaerotheca fuliginea; experiment: Example D: in vivo test on Sphaerotheca fuliginea (powdery mildew on cucumber); conditions: Podosphaera fuliginea, 288 h, cucumber plants sprayed 24 hours before inoculation, scored after 12 days, read-out: % Wirkungsgrad
Description: In Vivo Test on Sphaerotheca Fuliginea (Powdery Mildew on Cucumber) An aqueous suspension of the active substance was prepared by homogenization of a mixture of acetone/Tween/dimethyl sulphoxide and subsequent dilution with water to the desired concentration. Cucumber plants (variety: Vert petit de Paris) are sown in cultivation dishes on a peat-pozzolanic earth substrate (50/50) at 20/23° C. and at the cotyledon stage Z10 sprayed with the aqueous suspension described above. As a control, plants are sprayed with an aqueous solution with no active substance. After 24 hours the plants are inoculated by spraying with an aqueous suspension of Sphaerotheca fuliginea spores (100,000 spores per ml). The spores are derived from a contaminated plant. The inoculated cucumber plants are incubated at ca. 20/25° C. at a relative atmospheric humidity of 60/70%. After 12 days they are scored in comparison with the control plants.

[3] = system: Fusarium proliferatum; experiment: Example I: production of fumonisin FB1 by Fusarium proliferatum (microtitre plates); format: cell-based; conditions: 120 h
[4] = system: Sphaerotheca fuliginea; experiment: Example L: in vivo test on Sphaerotheca fuliginea (powdery mildew on cucumber/protective); conditions: Podosphaera fuliginea, 168 h, cucumber, protective, assessment 7 days after inoculation, read-out: % Wirkungsgrad
Summary of the method: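 Young cucumber plants sprayed at stated dosage with compound in DMF/alkylaryl polyglycol ether emulsifier diluted in water; inoculated with S. fuliginea spores one day later. Kept in greenhouse at 70% relative humidity, 23° C; protective activity assessed 7 days after inoculation.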

[5] = system: Alternaria solani; experiment: Example M: in vivo test on Alternaria solani (leaf blotch disease/tomato/protective); conditions: 168 h, tomato, protective, 500 ppm active substance, assessed 7 days after inoculation, read-out: % Wirkungsgrad (activity level)
Summary of the method: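 Alternaria solani infection on tomato scored 7 days post-inoculation. Before inoculation, young plants received a protective spray at the stated application dose; formulation was compound mixed with N,N-dimethylformamide and emulsifier, water-diluted.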

[6] = system: Peronospora parasitica; experiment: Example A: in vivo test on Peronospora parasitica (downy mildew on white cabbage); conditions: Hyaloperonospora parasitica, 120 h, cabbage plants sprayed 24 hours before inoculation, scored after 5 days, read-out: % Wirkungsgrad
Description: In Vivo Test on Peronospora Parasitica (Downy Mildew on White Cabbage) An aqueous suspension of the active substance was prepared by homogenization of a mixture of acetone/Tween (dispersant)/dimethyl sulphoxide (DMSO) and subsequent dilution with water to the desired concentration. Cabbage plants (variety: Eminence) are sown in cultivation dishes on a peat-pozzolanic earth substrate (50/50) at 18-20° C. and sprayed at the cotyledon stage with the aqueous suspension described above. As a control, plants are sprayed with an aqueous solution with no active substance. After 24 hours, the plants are inoculated by spraying with an aqueous suspension of Peronospora parasitica spores (50,000 spores per ml). The spores are derived from infected plants. The inoculated cabbage plants are incubated for 5 days at ca. 20° C. in a moist atmosphere. After 5 days, they are scored in comparison with the control plants.

[7] = system: Fusarium graminearum; experiment: microbe, parasite or virus in culture; format: cell-based
[8] = system: Botrytis cinerea; experiment: Example P: in vivo test on Botrytis cinerea (gray mould on bean/protective); conditions: 48 h, bean, protective, 250 ppm active substance, assessed 2 days after inoculation, read-out: % Wirkungsgrad (activity level)
Description: (§1) Emulsifier: 1 part by weight alkylaryl polyglycol ethers For the preparation of a suitable active substance preparation, 1 part by weight of active substance is mixed with the stated quantities of solvent and emulsifier and the concentrate is diluted to the desired concentration with water. For the testing for protective activity, young plants are sprayed with the active substance preparation at the stated application dosage. After drying of the spray coating, 2 small pieces of agar with Botrytis cinerea growing on them are laid on every leaf. […] 2 days after the inoculation, the size of the infection blotches on the leaves is assessed.

[9] = system: Venturia inaequalis; experiment: Example O: in vivo test on Venturia inaequalis (apple scab/protective); conditions: 240 h, protective, assessment 10 days after inoculation, read-out: % Wirkungsgrad
Description: as §1, with “dosage.” for “dosage. After drying of the spray coating, 2 small pieces of agar with Botrytis cinerea growing on them are laid on every leaf.”, “10” for “2”, “assessment takes place.” for “size of the infection blotches on the leaves is assessed.”

[10] = system: Plasmopara viticola; experiment: Example N: in vivo test on Plasmopara viticola (downy mildew, vine/protective); conditions: 144 h, vine, protective, assessment 6 days after inoculation, read-out: % Wirkungsgrad
Description: Emulsifier: 1 part by weight alkylaryl polyglycol ethers For the preparation of a suitable active substance preparation, 1 part by weight of active substance is mixed with the stated quantities of solvent and emulsifier and the concentrate is diluted to the desired concentration with water. For the testing for protective activity, young plants are sprayed with the active substance preparation at the stated application dosage. […] The plants are then moistened and placed in an incubation cabin for 1 day. 6 days after the inoculation, the assessment takes place.

[11] = LogPA (logP of the stated pure compound or, in a mixture, of the main isomer, 1-substituted 3-aryl-1H-pyrazole)
[12] = Fusarium proliferatum growth, OD 620, 5 days, read-out: % Inhibition des Pilzwachstums bei 50 μM
[13] = Fusarium proliferatum, 5 days at 20° C., HPLC-MS/MS, read-out: % Inhibition der FB1 produktion bei 50 μM
[14] = 72 h, read-out: % Inhibition des Pilzwachstums bei 50 μM
[15] = 168 h, read-out: % Inhibition der DON/AcDON produktion bei 50 μM

SMILES	chromatographic logP [1, 11]	pest or weed control at 500 ppm [2] [%]	inhibition at 50 µM [3, 12] [%]	inhibition at 50 µM [3, 13] [%]	pest or weed control at 500 ppm [4] [%]	pest or weed control at 500 ppm [5] [%]	pest or weed control at 500 ppm [6] [%]	inhibition at 50 µM [7, 14] [%]	inhibition at 50 µM [7, 15] [%]	pest or weed control at 250 ppm [8] [%]	pest or weed control at 100 ppm [9] [%]	pest or weed control at 100 ppm [10] [%]	chromatographic logP ([1]; LogPA)
Fc1ccc(-c2nn(C3CCCCO3)cc2-c2ccncc2)cc1 (stereo not shown) [Compound 9]	1.29	75	40	96	90	89							
CC(C)(C)Cn1cc(-c2ccncc2)c(-c2c(F)cccc2F)n1 [Compound 11]	1.84	93			73	80							
CC(C)=CCn1ncc(-c2ccncc2)c1-c1c(F)cccc1F [Compound 22]	1.72	71					97						
COCC(=O)Nc1cc(-c2cn(C3CCCCO3)nc2-c2ccc(F)cc2)ccn1 (stereo not shown) [Compound 23]	2.64		73	100			100						
Clc1cccc(-c2nn(C3CCCCO3)cc2-c2ccncc2)c1 (stereo not shown) [Compound 28]	1.55						97						
Clc1cccc(-c2nn(C3CCCCO3)cc2-c2ccnc3[nH]ccc23)c1 (stereo not shown) [Compound 32]	2.46						79						
FC1(F)Oc2cccc(-c3c(-c4ccncc4)cnn3C3CCCCO3)c2O1 (stereo not shown) [Compound 33]	1.64	71	99	99			93						
Cc1cc(F)ccc1-c1c(-c2ccncc2)cnn1C1CCCCO1 (stereo not shown) [Compound 37]	1.4	78						13	80				
CC(C)(C)C(=O)Nc1cc(-c2cn(C3CCCCO3)nc2-c2ccc(F)cc2)ccn1 (stereo not shown) [Compound 41]	3.19	98	56	100			72						
CC(C)n1cc(-c2ccnc(N)c2)c(-c2ccc(F)cc2)n1 [Compound 46]	1.18	81					94						
COC(=O)C(C)n1cc(-c2ccncc2)c(-c2ccc(F)cc2)n1 (stereo not shown) [Compound 107]	1.2	91											
Fc1ccc(-c2nn(Cc3cnc(Cl)s3)cc2-c2ccncc2)cc1 [Compound 110]	1.54	79											
COCCOCCn1cc(-c2ccncc2)c(-c2ccc(F)cc2)n1 [Compound 134]	1.04	85				100	94						
Fc1ccc(-c2nn(Cc3cccc(Oc4ccccc4)c3)cc2-c2ccncc2)cc1 [Compound 138]	2.36	77											
CC(C)n1cc(-c2ccnc(NC(=O)C3CCC3)c2)c(-c2ccc(F)cc2)n1 [Compound 156]	2.57		93	100	94	94		99	81	98	91		
CC(C)CC(=O)Nc1cc(-c2cn(C(C)C)nc2-c2ccc(F)cc2)ccn1 [Compound 160]	2.82				100	95		100	100	100	94	79	
CC(=O)Nc1cc(-c2cn(C(C)C)nc2-c2ccc(F)cc2)ccn1 [Compound 161]	1.85				100	95		104	100	100	95	95	
C#CCNc1nccc(-c2cn(CC(C)C)nc2-c2ccc(F)cc2)n1 [Compound 183]					94	100		65	99	93	73	86	2.76
CC(C)Cn1cc(-c2ccnc(NC(=O)C(C)C)n2)c(-c2ccc(F)cc2)n1 [Compound 189]			0	90		95				93	84		2.92
CC(C)n1cc(-c2ccnc(NC(=O)c3ccsc3)c2)c(-c2ccc(F)cc2)n1 [Compound 207]					100	90		75	100	100	86	71	2.96
COCC(=O)Nc1cc(-c2cn(CCCl)nc2-c2ccc(F)cc2)ccn1 [Compound 220]			99	100	97	95		100	99	100	96		2.36
CC(C)C(=O)Nc1cc(-c2cn(CCCl)nc2-c2ccc(F)cc2)ccn1 [Compound 222]			96	100	100	90		99	82	85	95		2.33
O=C(Nc1cc(-c2cn(CC(F)F)nc2-c2ccc(F)cc2)ccn1)c1cccs1 [Compound 236]					86	94				100	94	76	2.82
O=C(Nc1cc(-c2cn(CC(F)F)nc2-c2ccc(F)cc2)ccn1)c1ccccc1 [Compound 237]					88	100				100	95	84	2.9
CCC(C)C(=O)Nc1cc(-c2cn(CC(F)F)nc2-c2ccc(F)cc2)ccn1 (stereo not shown) [Compound 239]					95	100					98	88	2.62
